Consider 38 compounds from patent publication US9510598B2, “Nitrogen-containing heterocyclic compounds for plant disease control” (BAYER CROPSCIENCE AG, priority 2012, dated 2016).

As usually defined, the chromatographic logP is a lipophilicity value derived from retention on a column. Read a low chromatographic logP as lower lipophilicity.

The test system of data set [1] is Septoria tritici. Briefly: In vivo preventive test on Septoria tritici (leaf spot on wheat). Conditions: 500 ppm; wheat plants sprayed 24 hours before contamination; grading 21 to 28 days after contamination vs control plants. On the procedure:
Wheat plants (“Scipion” variety), sown in starter cups on a 50/50 peat soil-pozzolana substrate and grown at 22° C. (12 h)/20° C. (12 h), are treated at the 1-leaf stage (10 cm height) by spraying with the active ingredient prepared as described above. Plants, used as controls, are treated with the mixture of acetone/tween/DMSO/water not containing the active material. After 24 hours, the plants are contaminated by spraying the leaves with an aqueous suspension of cryopreserved Septoria tritici spores (500 000 spores per ml). […] Grading (% of efficacy) is carried out 21 to 28 days after the contamination, in comparison with the control plants.

The subject of data set [2] is Botrytis cinerea. Briefly: In vivo preventive test on Botrytis cinerea (grey mould). The following applies: 500 ppm; gherkin plants sprayed 24 hours before contamination; grading 4-5 days after contamination vs control plants. On the procedure: Gherkin plants (“Vert petit de Paris” variety), sown in starter cups on a 50/50 peat soil-pozzolana substrate and grown at 24° C., are treated at the Z11 cotyledon stage by spraying with the active ingredient prepared as described above. Plants, used as controls, are treated with the mixture of acetone/tween/DMSO/water not containing the active material. After 24 hours, the plants are contaminated by spraying the cotyledons with an aqueous suspension of cryopreserved Botrytis cinerea spores (50 000 spores per ml). The spores are suspended in a nutrient solution composed of 10 g/L of PDB, 50 g/L of D-Fructose, 2 g/L of NH4NO3 and 1 g/L of KH2PO4. The contaminated gherkin plants are incubated at 17° C. and at 80% relative humidity. Grading (% of efficacy) is carried out 4-5 days after the contamination, in comparison with the control plants.

The format of data set [3] is physicochemical. Conditions: for Log P: method [a]: HPLC/LC-MS on reversed phase at pH 2.7, 0.1% formic acid in water and acetonitrile.
[4] abbreviates: linear gradient 10% to 95% acetonitrile.
Setting [5] is: method [a]: HPLC/LC-MS on reversed phase at pH 2.7, 0.1% formic acid in water / acetonitrile, linear gradient 10% to 95% acetonitrile.
Setting [6] is: HPLC on reversed phase columns, method [a]: pH 2.7, 0.1% formic acid in water / acetonitrile, linear gradient 10% to 95% acetonitrile.
[7] abbreviates: method [a]: HPLC/LC-MS on reversed phase at pH 2.7, 0.1% formic acid in water / acetonitrile, gradient 10% to 95% acetonitrile.

Where two headings read alike, the source gives them in different places.

For the compound `C#Cc1cnc2ccc(C3=NOC(C(=O)NCCCOCC)(C(F)F)C3)cc2c1` (stereo not drawn) [Compound No. 615], the “% of efficacy (protection)” value in data set [1] amounted to 79%; in data set [2] it was 95%. The compound further displayed a chromatographic logP in data set [3] (pH 2.7) of 2.73.
On to `CCOCCCNC(=O)C1(C)CC(c2cc3cc(Br)cnc3c(F)c2F)=NO1` (stereo not drawn) [compound 14], for which the “% of efficacy (protection)” value in data set [2] is given as 100%. Moreover, in data set [3] (setting [4]), the “Log P” value is 2.98^[a].
As for `CCC(C)NC(=O)C1(C)CC(c2cc3cc(Br)cnc3c(F)c2F)=NO1` (stereo not drawn) [compound 22], the “% of efficacy (protection)” value in data set [1] is given as 83%; in data set [2] it was 93%. In addition, the “Log P” value in data set [3] (setting [4]) was 3.31^[a].
Turning to `CCOCCCNC(=O)C1(C(C)C)CC(c2ccc3ncc(Br)cc3c2)=NO1` (stereo not drawn) [compound 64], the “% of efficacy (protection)” value in data set [1] was 70%; in data set [2], 77%. The “log P” value in data set [3] (setting [5]) was 3.46^[a].
Take `CCC1(C(=O)NC2CC2)CC(c2ccc3ncc(Br)cc3c2)=NO1` (stereo not drawn) [compound 69]: the “% of efficacy (protection)” value in data set [1] is on record as 97%; in data set [2], 99%. The “log P” value in data set [3] (setting [5]) was 2.75^[a].
Regarding `CCOc1cnc2ccc(C3=NOC(C)(C(=O)NC(C)C)C3)cc2c1` (stereo not drawn) [compound 78], the “% of efficacy (protection)” value in data set [1] amounted to 97%; in data set [2], 74%. Besides, the “log P” value in data set [3] (setting [5]) is 2.43^[a].
For the compound `CC1(C(=O)NCC2CCOC2)CC(c2ccc3ncc(Br)cc3c2)=NO1` (stereo not drawn) [compound 127], in data set [2], the “% of efficacy (protection)” value turned out to be 80%. Also, the “log P” value in data set [3] (setting [5]) was 2.2^[a].
On to `C#Cc1cnc2ccc(C3=NOC(C)(C(=O)NCC4(C)CCCO4)C3)cc2c1` (stereo not drawn) [compound 128], for which the “% of efficacy (protection)” value in data set [1] is 83%; in data set [2] it was 98%. Moreover, the “log P” value in data set [3] (setting [5]) is 2.42^[a].
As to `CC1(C(=O)NCC2CCCO2)CC(c2ccc3ncc(Br)cc3c2)=NO1` (stereo not drawn) [compound 130], the “% of efficacy (protection)” value in data set [2] amounted to 89%. For the same compound, the “log P” value in data set [3] (setting [5]) is 2.45^[a].
On to `CC1(CNC(=O)C2(C)CC(c3ccc4ncc(Br)cc4c3)=NO2)CCCO1` (stereo not drawn) [compound 131], for which the entries for the “% of efficacy (protection)” value in data set [1] and in data set [2] were 83% and 92%, respectively. Moreover, the “log P” value in data set [3] (setting [5]) was 2.73^[a].
Take `CCn1cc(CNC(=O)C2(C)CC(c3ccc4ncc(SC)cc4c3)=NO2)c(C)n1` (stereo not drawn) [compound 147]: the “% of efficacy (protection)” value in data set [2] was 88%. For the same compound, in data set [3] (setting [5]), the “log P” value is 2.09^[a].
Take `C#Cc1cnc2ccc(C3=NOC(C)(C(=O)NCc4cnc(C)cn4)C3)cc2c1` (stereo not drawn) [compound 167]: the “% of efficacy (protection)” value in data set [1] and in data set [2] was 100% throughout. In data set [3] (setting [5]), the “log P” value is 1.98^[a].
As to `C#Cc1cnc2ccc(C3=NOC(C)(C(=O)NCc4ccccc4Cl)C3)cc2c1` (stereo not drawn) [compound 168], the “% of efficacy (protection)” value is 71% in data set [1] and 99% in data set [2]. Moreover, the “log P” value in data set [3] (setting [5]) was 3.23^[a].
Turning to `C#Cc1cnc2ccc(C3=NOC(C)(C(=O)NCc4cnn(-c5ccccc5)c4)C3)cc2c1` (stereo not drawn) [compound 186], the entries for the “% of efficacy (protection)” value in data set [1] and in data set [2] were 71% and 92%, respectively. Moreover, in data set [3] (setting [5]), the “log P” value was 2.78^[a].
`C#Cc1cnc2ccc(C3=NOC(C)(C(=O)NCc4cccc(OC(F)(F)F)c4)C3)cc2c1` (stereo not drawn) [compound 190]: the entries for the “% of efficacy (protection)” value in data set [1] and in data set [2] were 71% and 89%, respectively. In addition, the “log P” value in data set [3] (setting [5]) was 3.48^[a].
As to `C#Cc1cnc2ccc(C3=NOC(C)(C(=O)NCc4cc(Cl)cc(Cl)c4)C3)cc2c1` (stereo not drawn) [compound 193], in data set [2], the “% of efficacy (protection)” value came out at 74%. The “log P” value in data set [3] (setting [5]) is 3.71^[a].
Take `CC1(C(=O)NCc2cnn(-c3ccccc3)c2)CC(c2ccc3ncc(Br)cc3c2)=NO1` (stereo not drawn) [compound 202]: the “% of efficacy (protection)” value in data set [2] stood at 87%. The “log P” value in data set [3] (setting [5]) is 3.11^[a].
In the case of `C#Cc1cnc2ccc(C3=NOC(C)(C(=O)NC4COC4)C3)cc2c1` (stereo not drawn) [compound 238], the “% of efficacy (protection)” value is on record as 93% in data set [1] and 82% in data set [2]. For the same compound, the “log P” value in data set [3] (setting [6]) is 1.75^[a].
Take `CC(C)NC(=O)C1(C2CC2)CC(c2ccc3ncc(Br)cc3c2)=NO1` (stereo not drawn) [compound 267]: the figures for the “% of efficacy (protection)” value in data set [1] and in data set [2] were 93% and 85%, respectively. In data set [3] (setting [6]), the “log P” value is 3.25[a].
Regarding `CCn1cc(CNC(=O)C2(C3CC3)CC(c3ccc4ncc(Br)cc4c3)=NO2)c(C)n1` (stereo not drawn) [compound 268], the “% of efficacy (protection)” value in data set [2] was 93%. Besides, the “log P” value in data set [3] (setting [6]) is 2.73[a].
For the compound `CCCOc1cnc2ccc(C3=NOC(C)(C(=O)NCc4cn(CC)nc4C)C3)cc2c1` (stereo not drawn) [compound 418], the “% of efficacy (protection)” value is reported as 83% in data set [1] and 79% in data set [2]. The “log P” value in data set [3] (setting [7]) is 2.46[a].
Consider `C#Cc1cnc2ccc(C3=NOC(C)(C(=S)NCc4cnc(C)cn4)C3)cc2c1` (stereo not drawn) [compound 481], for which the “% of efficacy (protection)” value in data set [1] is on record as 86%; in data set [2] it was 97%. Besides, the “log P” value in data set [3] (setting [7]) was 2.84[a].
`CC1(C(=O)NCC(F)(F)F)CC(c2ccc3ncc(Br)cc3c2)=NO1` (stereo not drawn) [compound 493]: the results for the “% of efficacy (protection)” value in data set [1] and in data set [2] were 97% and 100%, respectively. In addition, the “log P” value in data set [3] (setting [7]) is 2.84[a].
`CCC1(C(=O)NC2CCC2)CC(c2ccc3ncc(Br)cc3c2)=NO1` (stereo not drawn) [compound 498]: the figures for the “% of efficacy (protection)” value in data set [1] and in data set [2] were 71% and 92%, respectively. Further, the “log P” value in data set [3] (setting [7]) was 3.31[a].
Take `C#Cc1cnc2ccc(C3=NOC(C)(C(=O)NC4CCOCC4)C3)cc2c1` (stereo not drawn) [compound 502]: the “% of efficacy (protection)” value in data set [1] is 100%; in data set [2] it was 98%. Also, the “log P” value in data set [3] (setting [7]) was 2.01[a].
As for `C=C(C)C1(C(=O)NC(C)C)CC(c2ccc3ncc(Br)cc3c2)=NO1` (stereo not drawn) [compound 517], the “% of efficacy (protection)” value in data set [2] turned out to be 80%. Also, in data set [3] (setting [6]), the “log P” value was 3.41[a].
In the case of `C#Cc1cnc2ccc(C3=NOC(C)(C(=O)NC(C)(C#N)C4CC4)C3)cc2c1` (stereo not drawn) [compound 523], the “% of efficacy (protection)” value in data set [1] is reported as 97%; in data set [2], 73%. Also, the “log P” value in data set [3] (setting [6]) was 2.75[a].
On to `C#Cc1cnc2ccc(C3=NOC(C)(C(=O)NC(C)c4ccc(Cl)nc4)C3)cc2c1` (stereo not drawn) [compound 525], for which the “% of efficacy (protection)” value stood at 93% in data set [1] and 100% in data set [2]. Besides, in data set [3] (setting [6]), the “log P” value was 2.68[a].
The corresponding values for `CCNC(=O)C1(C)CC(c2ccc3ncc(Br)cc3c2)=NO1` (stereo not drawn) [compound 528] are 97%, 99% and 2.39[a].
For `C#Cc1cnc2ccc(C3=NOC(C)(C(=O)Nc4cn(CC)nc4C)C3)cc2c1` (stereo not drawn) [compound 529], the “% of efficacy (protection)” value in data set [1] and in data set [2] was 100% each time. Further, the “log P” value in data set [3] (setting [6]) is 2.26[a].
With `Cc1cnc(CNC(=O)C2(C)CC(c3cc(C)c4ncc(Br)cc4c3)=NO2)cn1` (stereo not drawn) [compound 537], the “% of efficacy (protection)” value in data set [1] and in data set [2] was 100% in each case. Moreover, the “log P” value in data set [3] (setting [6]) is 2.84[a].
In the case of `CC1(C(=O)NC2CCC2)CC(c2cc(Cl)c3ncc(Br)cc3c2)=NO1` (stereo not drawn) [compound 539], the “% of efficacy (protection)” value in data set [1] is reported as 83%; in data set [2], 100%. Further, the “log P” value in data set [3] (setting [6]) is 3.48[a].
Take `CCOCCCNC(=O)C1(C)CC(c2cc(Cl)c3ncc(Br)cc3c2)=NO1` (stereo not drawn) [compound 542]: the “% of efficacy (protection)” value is 83% in data set [1] and 100% in data set [2]. Besides, the “log P” value in data set [3] (setting [6]) is 3.25[a].
With `Cc1cnc(CNC(=O)C2(C)CC(c3cc(Cl)c4ncc(Br)cc4c3)=NO2)cn1` (stereo not drawn) [compound 556], the “% of efficacy (protection)” value in data set [1] turned out to be 97%. In data set [3] (setting [6]), the “log P” value was 2.64[a].
The corresponding values for `CCOCCCNC(=O)C1(C(C)O)CC(c2ccc3ncc(Br)cc3c2)=NO1` (stereo not drawn) [compound 560] are 97% and 2.27[a].
As for `CCOCCCNC(=O)C1(OC)CC(c2cc(C)c3ncc(Br)cc3c2)=NO1` (stereo not drawn) [compound 597], the “% of efficacy (protection)” value in data set [1] and in data set [2] was 100% each time. For the same compound, the “log P” value in data set [3] (setting [6]) is 3.39[a].
In the case of `CC1(C)OCC(CNC(=O)C2(C(F)F)CC(c3ccc4ncc(I)cc4c3)=NO2)O1` (stereo not drawn) [compound 618], the “% of efficacy (protection)” value in data set [1] turned out to be 93%. In addition, the “log P” value in data set [3] (setting [6]) is 3.06[a].
For `C=CC1(C(=O)NCC2COC(C)(C)O2)CC(c2ccc3ncc(Br)cc3c2)=NO1` (stereo not drawn) [compound 732], the “% of efficacy (protection)” value in data set [1] amounted to 100%. The “log P” value in data set [3] (HPLC on reversed phase columns, method [a]: pH 2.7, 0.1% formic acid in water and acetonitrile, linear gradient 10% to 95% acetonitrile) is 2.98[a].
